Reference: ChEMBL document CHEMBL4507276 (2021)

Tests used:
Settings in all cases: Compound concentration 1000.0 nM
[1] = system: Tyrosine-protein kinase ABL1 (Homo sapiens), P00519 [F317L]
[2] = target: T1, Discoidin domain-containing receptor 2 (Homo sapiens) (UniProt Q16832)
T1 sequence (whole entry): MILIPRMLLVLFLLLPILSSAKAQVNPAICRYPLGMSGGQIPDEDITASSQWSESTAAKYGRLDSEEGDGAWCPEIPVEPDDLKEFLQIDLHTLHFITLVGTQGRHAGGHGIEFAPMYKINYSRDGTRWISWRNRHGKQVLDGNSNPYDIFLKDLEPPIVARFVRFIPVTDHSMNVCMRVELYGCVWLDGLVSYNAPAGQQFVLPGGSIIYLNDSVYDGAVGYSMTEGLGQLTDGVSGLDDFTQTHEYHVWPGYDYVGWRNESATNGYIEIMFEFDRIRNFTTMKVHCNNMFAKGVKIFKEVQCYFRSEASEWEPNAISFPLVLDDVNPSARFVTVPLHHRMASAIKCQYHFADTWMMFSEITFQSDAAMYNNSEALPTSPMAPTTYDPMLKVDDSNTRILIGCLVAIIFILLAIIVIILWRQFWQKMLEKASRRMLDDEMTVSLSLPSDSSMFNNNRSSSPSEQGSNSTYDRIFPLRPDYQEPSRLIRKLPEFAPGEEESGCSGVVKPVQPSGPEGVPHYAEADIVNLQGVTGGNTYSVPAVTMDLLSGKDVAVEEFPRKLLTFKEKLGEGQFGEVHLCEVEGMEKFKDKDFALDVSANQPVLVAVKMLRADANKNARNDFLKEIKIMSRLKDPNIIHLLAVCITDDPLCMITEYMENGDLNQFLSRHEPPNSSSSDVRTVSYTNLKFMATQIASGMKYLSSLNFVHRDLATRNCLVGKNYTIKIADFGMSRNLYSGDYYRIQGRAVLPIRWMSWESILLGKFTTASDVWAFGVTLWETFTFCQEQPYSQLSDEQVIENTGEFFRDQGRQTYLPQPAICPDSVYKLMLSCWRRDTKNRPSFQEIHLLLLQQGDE

[3] = target: Dual specificity tyrosine-phosphorylation-regulated kinase 1A (Homo sapiens) (UniProt Q13627)
[4] = system: Epidermal growth factor receptor (Homo sapiens), P00533 [UNDEFINED MUTATION]
[5] = system: Epidermal growth factor receptor (Homo sapiens), P00533 [L858R,T790M]
[6] = target: Mitogen-activated protein kinase 1 (Homo sapiens) (UniProt P28482)
Mitogen-activated protein kinase 1 (Homo sapiens), sequence (P28482 whole entry): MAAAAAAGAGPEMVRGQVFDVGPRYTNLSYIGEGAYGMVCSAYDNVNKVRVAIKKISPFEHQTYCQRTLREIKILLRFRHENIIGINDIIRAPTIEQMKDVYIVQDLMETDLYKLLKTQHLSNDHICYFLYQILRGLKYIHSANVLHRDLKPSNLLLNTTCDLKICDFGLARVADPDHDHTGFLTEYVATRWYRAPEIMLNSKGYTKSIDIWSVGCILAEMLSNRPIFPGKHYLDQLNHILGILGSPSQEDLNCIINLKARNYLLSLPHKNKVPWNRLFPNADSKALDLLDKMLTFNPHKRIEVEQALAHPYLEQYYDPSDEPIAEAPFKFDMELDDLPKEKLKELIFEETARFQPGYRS

[7] = system: Receptor-type tyrosine-protein kinase FLT3 (Homo sapiens), P36888 [UNDEFINED MUTATION]
Receptor-type tyrosine-protein kinase FLT3 (Homo sapiens), P36888 [UNDEFINED MUTATION], sequence (P36888 whole entry, looked up, change not shown): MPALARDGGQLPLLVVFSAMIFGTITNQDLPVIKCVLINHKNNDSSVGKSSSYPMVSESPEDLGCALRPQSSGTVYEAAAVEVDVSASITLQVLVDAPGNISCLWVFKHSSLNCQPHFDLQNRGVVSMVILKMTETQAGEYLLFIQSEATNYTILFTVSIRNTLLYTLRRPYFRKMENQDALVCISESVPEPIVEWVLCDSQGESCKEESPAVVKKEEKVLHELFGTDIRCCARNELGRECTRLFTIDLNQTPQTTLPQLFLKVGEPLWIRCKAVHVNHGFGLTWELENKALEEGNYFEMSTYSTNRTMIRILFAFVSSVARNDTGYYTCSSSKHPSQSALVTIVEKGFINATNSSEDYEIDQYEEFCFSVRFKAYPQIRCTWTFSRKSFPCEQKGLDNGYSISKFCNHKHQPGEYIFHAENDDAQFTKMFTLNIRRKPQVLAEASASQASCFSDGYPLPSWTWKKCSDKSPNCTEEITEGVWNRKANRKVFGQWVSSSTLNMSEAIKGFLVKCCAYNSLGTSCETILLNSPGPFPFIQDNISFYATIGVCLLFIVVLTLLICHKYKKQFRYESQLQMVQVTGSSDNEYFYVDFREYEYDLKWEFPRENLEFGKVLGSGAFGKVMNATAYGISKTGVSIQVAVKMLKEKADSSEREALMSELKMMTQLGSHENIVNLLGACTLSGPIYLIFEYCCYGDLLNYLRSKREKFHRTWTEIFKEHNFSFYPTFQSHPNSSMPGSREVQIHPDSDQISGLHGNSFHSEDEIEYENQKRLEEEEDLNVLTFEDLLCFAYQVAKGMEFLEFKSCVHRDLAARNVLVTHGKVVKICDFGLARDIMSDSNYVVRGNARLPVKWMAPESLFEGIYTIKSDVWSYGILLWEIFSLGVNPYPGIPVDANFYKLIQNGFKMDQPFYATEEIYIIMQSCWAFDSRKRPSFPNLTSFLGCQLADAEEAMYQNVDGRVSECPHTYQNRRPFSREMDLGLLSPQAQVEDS

[8] = target: Glycogen synthase kinase-3 alpha (Homo sapiens) (UniProt P49840)
Glycogen synthase kinase-3 alpha (Homo sapiens), sequence (P49840 2-483 limits assumed): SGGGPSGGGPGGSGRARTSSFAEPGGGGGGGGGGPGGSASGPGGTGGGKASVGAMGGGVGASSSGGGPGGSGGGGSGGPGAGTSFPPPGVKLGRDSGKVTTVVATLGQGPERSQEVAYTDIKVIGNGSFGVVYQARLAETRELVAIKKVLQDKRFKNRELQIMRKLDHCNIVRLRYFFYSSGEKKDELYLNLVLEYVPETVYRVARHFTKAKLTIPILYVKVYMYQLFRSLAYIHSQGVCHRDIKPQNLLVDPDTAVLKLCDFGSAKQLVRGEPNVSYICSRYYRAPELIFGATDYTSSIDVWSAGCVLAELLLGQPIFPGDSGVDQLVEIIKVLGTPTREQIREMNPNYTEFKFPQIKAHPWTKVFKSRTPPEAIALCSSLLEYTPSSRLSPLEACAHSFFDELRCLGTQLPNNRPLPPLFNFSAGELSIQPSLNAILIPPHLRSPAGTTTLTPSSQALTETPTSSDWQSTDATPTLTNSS

[9] = target: T2, Homeodomain-interacting protein kinase 4 (Homo sapiens) (UniProt Q8NE63)
T2 sequence (whole entry): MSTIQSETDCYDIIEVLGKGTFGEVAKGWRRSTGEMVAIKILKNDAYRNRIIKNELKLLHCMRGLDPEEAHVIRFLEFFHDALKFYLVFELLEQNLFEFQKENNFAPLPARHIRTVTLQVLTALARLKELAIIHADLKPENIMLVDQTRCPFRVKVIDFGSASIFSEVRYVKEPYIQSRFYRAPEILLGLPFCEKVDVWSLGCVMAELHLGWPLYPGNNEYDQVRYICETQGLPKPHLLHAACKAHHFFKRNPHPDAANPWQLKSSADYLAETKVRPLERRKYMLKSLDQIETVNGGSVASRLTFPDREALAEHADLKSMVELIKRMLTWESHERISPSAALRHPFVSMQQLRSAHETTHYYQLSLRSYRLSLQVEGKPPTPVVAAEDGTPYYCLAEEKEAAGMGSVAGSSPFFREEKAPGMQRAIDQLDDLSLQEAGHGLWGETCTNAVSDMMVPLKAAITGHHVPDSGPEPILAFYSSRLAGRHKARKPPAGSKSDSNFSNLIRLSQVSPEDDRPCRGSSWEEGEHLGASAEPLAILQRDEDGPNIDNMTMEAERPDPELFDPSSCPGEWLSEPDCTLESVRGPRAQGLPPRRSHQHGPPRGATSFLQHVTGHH

[10] = target: MAP/microtubule affinity-regulating kinase 3 (Homo sapiens) (UniProt P27448)
MAP/microtubule affinity-regulating kinase 3 (Homo sapiens), sequence (P27448 whole entry, looked up): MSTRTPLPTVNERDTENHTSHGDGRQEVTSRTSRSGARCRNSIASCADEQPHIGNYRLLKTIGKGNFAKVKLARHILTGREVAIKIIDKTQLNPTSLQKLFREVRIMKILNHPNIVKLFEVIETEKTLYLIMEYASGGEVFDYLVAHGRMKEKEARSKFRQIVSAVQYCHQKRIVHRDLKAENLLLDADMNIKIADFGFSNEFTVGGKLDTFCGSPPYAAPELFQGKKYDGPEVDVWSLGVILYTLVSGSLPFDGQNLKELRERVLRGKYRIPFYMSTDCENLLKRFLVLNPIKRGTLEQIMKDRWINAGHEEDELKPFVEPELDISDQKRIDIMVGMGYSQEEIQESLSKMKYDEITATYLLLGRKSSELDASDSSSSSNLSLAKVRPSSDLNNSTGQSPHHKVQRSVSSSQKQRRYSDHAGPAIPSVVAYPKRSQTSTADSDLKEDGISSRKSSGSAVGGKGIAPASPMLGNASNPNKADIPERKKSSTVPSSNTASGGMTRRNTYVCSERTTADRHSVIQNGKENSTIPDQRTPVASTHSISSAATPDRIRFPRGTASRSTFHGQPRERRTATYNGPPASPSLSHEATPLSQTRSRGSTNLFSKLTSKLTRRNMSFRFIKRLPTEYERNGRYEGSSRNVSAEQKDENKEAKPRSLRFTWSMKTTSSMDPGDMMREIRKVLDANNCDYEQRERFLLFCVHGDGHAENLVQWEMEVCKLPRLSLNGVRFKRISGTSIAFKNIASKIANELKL

[11] = target: Myosin-IIIb (Homo sapiens) (UniProt Q8WXR4)
[12] = target: Serine/threonine-protein kinase PAK 4 (Homo sapiens) (UniProt O96013)
Serine/threonine-protein kinase PAK 4 (Homo sapiens), sequence (O96013 whole entry, looked up, canonical isoform): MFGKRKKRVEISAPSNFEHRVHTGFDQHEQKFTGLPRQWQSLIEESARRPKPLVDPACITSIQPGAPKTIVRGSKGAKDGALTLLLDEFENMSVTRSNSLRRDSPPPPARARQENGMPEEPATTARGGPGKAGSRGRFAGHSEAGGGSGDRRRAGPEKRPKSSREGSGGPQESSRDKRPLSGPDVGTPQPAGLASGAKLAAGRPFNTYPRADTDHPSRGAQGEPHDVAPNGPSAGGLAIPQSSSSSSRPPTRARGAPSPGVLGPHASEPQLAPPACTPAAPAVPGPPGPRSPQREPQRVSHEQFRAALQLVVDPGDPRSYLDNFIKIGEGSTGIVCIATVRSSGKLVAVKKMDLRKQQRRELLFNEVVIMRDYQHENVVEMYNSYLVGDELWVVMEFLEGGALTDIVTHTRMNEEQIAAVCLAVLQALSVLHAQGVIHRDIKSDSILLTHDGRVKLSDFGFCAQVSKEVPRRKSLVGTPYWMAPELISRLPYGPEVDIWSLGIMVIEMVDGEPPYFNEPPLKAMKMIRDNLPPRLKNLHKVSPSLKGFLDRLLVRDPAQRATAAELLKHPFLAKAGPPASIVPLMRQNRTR

[13] = system: Phosphatidylinositol 4,5-bisphosphate 3-kinase catalytic subunit alpha isoform (Homo sapiens), P42336 [H1047L]
[14] = target: Serine/threonine-protein kinase PLK3 (Homo sapiens) (UniProt Q9H4B4)
Serine/threonine-protein kinase PLK3 (Homo sapiens), sequence (Q9H4B4 whole entry, looked up): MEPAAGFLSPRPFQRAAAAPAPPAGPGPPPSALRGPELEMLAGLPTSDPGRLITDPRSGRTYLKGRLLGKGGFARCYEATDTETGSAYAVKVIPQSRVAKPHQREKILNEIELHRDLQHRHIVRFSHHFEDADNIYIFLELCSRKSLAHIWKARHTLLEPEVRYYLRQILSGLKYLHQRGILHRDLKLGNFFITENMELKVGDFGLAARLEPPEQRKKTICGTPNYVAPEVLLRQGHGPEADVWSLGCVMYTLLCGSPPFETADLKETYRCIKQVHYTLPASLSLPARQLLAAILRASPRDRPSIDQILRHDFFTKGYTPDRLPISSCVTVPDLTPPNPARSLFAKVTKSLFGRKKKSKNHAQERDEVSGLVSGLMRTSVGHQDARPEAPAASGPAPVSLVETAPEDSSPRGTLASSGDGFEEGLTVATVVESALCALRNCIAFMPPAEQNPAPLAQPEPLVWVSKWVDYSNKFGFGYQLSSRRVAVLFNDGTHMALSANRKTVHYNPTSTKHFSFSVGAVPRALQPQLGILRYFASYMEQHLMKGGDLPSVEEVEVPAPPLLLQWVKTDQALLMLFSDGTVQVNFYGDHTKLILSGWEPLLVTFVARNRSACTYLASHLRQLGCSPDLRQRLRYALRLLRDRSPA

Measured: residual activity

Tyrosine-protein kinase ABL1 (Homo sapiens), P00519 [F317L], sequence (P00519 whole entry F317L, the tested form may be a part): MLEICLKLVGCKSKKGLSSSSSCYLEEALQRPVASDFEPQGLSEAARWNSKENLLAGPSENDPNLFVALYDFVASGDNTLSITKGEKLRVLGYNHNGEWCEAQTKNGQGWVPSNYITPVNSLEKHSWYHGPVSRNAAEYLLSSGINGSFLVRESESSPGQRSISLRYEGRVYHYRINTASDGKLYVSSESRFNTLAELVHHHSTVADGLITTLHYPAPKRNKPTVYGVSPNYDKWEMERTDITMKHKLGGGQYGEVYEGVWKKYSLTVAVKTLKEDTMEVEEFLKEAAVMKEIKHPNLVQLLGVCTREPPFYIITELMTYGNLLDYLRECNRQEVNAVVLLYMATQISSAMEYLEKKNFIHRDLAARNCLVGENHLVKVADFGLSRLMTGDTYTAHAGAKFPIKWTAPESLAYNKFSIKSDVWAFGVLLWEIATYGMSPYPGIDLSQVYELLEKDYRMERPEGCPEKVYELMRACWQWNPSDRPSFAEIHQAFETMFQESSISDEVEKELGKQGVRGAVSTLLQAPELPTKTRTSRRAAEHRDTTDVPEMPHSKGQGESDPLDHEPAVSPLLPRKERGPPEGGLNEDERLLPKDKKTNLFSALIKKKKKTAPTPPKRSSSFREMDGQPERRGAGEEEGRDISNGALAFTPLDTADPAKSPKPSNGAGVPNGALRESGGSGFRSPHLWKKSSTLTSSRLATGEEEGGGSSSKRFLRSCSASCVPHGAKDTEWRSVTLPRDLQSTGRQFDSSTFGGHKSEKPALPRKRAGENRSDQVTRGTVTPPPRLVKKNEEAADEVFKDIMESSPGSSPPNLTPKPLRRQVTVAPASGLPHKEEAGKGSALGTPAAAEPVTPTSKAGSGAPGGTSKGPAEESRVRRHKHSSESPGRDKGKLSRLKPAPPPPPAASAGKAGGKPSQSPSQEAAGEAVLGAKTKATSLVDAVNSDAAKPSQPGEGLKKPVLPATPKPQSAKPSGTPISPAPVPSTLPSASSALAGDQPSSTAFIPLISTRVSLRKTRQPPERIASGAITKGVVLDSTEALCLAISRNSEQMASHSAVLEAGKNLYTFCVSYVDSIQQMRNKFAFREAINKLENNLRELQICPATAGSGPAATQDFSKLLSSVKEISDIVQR

CN(C)C(=O)Cn1cc(-c2nc(C3(c4ccc(-c5cnc(N)nc5)cc4)CC3)no2)cn1 [BI 0153]
inactive: [1] 85% | [2] 100% | [3] 66% | [4] 67% | [5] 97% | [6] 81% | [7] 85% | [8] 100% | [9] 100% | [10] 100% | [11] 100% | [12] 100% | [13] 73% | [14] 89%

CN(C)C(=O)Cn1cc(-c2nc([C@@](C)(c3ccc(-c4cnc(N)nc4)cc3)C3CC3)no2)cn1 [BI 665915]
inactive: [1] 88% | [2] 89% | [3] 73% | [4] 100% | [5] 93% | [6] 100% | [7] 100% | [8] 100% | [9] 70% | [10] 99% | [11] 70% | [12] 96% | [13] 100% | [14] 89%
